“Also recorded” adds a separate entry of the source.
Assays:
[1] = system: Rho kinase (ROCK-1) phosphorylation; assay: Histamine-induced ROCK-1 phosphorylation, western blot; type: cell-based, human; conditions: 24 hrs; for inhibitory effect on ROCK-1 phosphorylation with mevalonate co-treatment: 1 μM with MA 200 μM
Description: (§1) Antibodies for western blot analysis against total and phospho-MLC2 were obtained from Santa Cruz Biotechnology and Cell Signaling Technology, respectively. Antibodies for pROCK1, total ROCK1, and GAPDH were obtained from Abcam. Pitavastatin was obtained from Santa Cruz Biotechnology.
Human ASM cells were treated with pitavastatin (1 μM) with or without mevalonate (MA, 200 μM) for 24 hours, then treated with histamine (10 μM) for 5 minutes.

eotaxin-3 [2] = assay: IL13/TNFα-induced eotaxin-3 peptide secretion by ASM cells; type: cell-based, human; conditions: 2 mM pitavastatin, 72 hrs; cytokines 18 hrs at 10 ng/mL; 10% FBS; FIG. 14A
Description: (§2) Non-asthmatic primary human ASM cells were grown to confluence and were either untreated or pre-treated with 2 mM pitavastatin and GGPP (10 mM) for a total of 72 hours. Total cytokine stimulation was for 18 hours at 10 ng/mL. […] All experiments were conducted under serum-containing media conditions (10% FBS).

[3] = system: precision-cut human lung slices; assay: Histamine-induced bronchoconstriction in precision-cut human lung slices, pitavastatin and isoproterenol; conditions: 5 μM, 24 hours
Description: The experiment was performed under serum-deprived media conditions, n=3-7 airways per group. Changes in lumen narrowing were reported as percentage changes (±SEM) of the pre-treatment state (see FIG. 13). The absolute value of lumen airway area was not statistically different between the pitavastatin and control groups at the pre-treatment state.

[4] = system: human ASM cells, histamine-induced contraction; assay: Contractile force screening, histamine-induced ASM contraction; type: cell-based
Description: Contractile Force Screening: Human ASM cells were grown to confluence in 96-well plates on custom NuSil™ 8100 elastic substrates (Avantor, Inc., Radnor, Pa.) (R. Rokhzan et al., Lab Invest (2019) 99(1):138-45). Fluorescent beads (diameter ˜400 nm) were embedded in the substrate surface to enable traction force calculations based on their displacements. To measure fractions, an inverted epi-fluorescence microscope (DMI 6000B, Leica Inc., Germany) equipped with a heated chamber (37° C.), a monochrome camera (Leica DFC365 FX), and a motorized stage was used. Spatial images were recorded of substrate-embedded fluorescent beads at 10× magnification. Based on the bead displacements (resolution ˜15 μm) relative to a cell-free model, together with knowledge of substrate stiffness and thickness, fractions were computed using the approach of Fourier Transform Traction Cytometry (B. Yeganeh et al., Pharmacol Ther (2014) 143(1):87-110), modified to the case of cell monolayers (E. J. Whalen et al., Cell (2007) 129(3):511-22). From each fraction map, the root-mean-squared traction (RMST) value and strain energy were calculated and reported as a measure of normal contraction in the monolayer. On a well-by-well basis, the ratio of the strain energy after vs. before treatment was computed, and all values of a given treatment group were normalized to the mean of each treatment group.
In complete media, 0.08 μM pitavastatin is sufficient to inhibit histamine-mediated ASM contraction (FIG. 4A).

ASM cells = assay: Simulated deep breath (stretch-unstretch), cell mapping rheometry and CFS; type: cell-based, human; conditions: 1 μM, 24 hrs; for force recovery after single stretch-unstretch maneuver (stretch-induced ASM force relaxation): 10% magnitude, 4-sec stretch, recovery over 180 seconds, FIG. 12B
Description: Well-defined biaxial stretch (4 sec duration, 10% magnitude) was imposed using the method of cell mapping rheometry. The strain energy from each ASM force map was computed as a metric of average cellular contraction, and reported as fold changes to the pre-stretch baseline value.
Normal ASM was treated with pitavastatin (1 μM, 24 hrs, n=7), isoproterenol (10 μM, 30 min, n=6) or vehicle (n=7), and examined by CFS as described above. […] Shown are contraction values normalized to the untreated control group. […] The contraction force gradually recovered over 180 seconds. […] All data are reported as mean and standard error of the mean (SEM).

F-actin = F-actin expression, immunostaining; type: cell-based, human; conditions: 24 hrs; for basal F-actin expression: 1 μM, FIG. 15A/15B
Description: (§3) Non-asthmatic primary human ASM cells were treated with either vehicle or pitavastatin (1 μM) for 24 hours. Cells were then immuno-stained for F-actin expression. […] Cell lysates were analyzed by western blot for total ROCK-1, total ROCK-2, total MLC-2, and phosphorylated MLC-2. As shown in FIGS. 15C and 15D, pitavastatin reduced the total expression of ROCK-1, ROCK-2, and MLC-2 (total and phosphorylated).
Non-asthmatic primary human ASM cells were co-treated with 1 μM pitavastatin (Pit), Pit with 10 μM GGPP, or Pit with 10 μM GGPP plus 100 μM MA for 24 hrs.

IL6 = assay: IL17/TNFα-induced IL6 peptide secretion by ASM cells; type: cell-based, human; conditions: 2 mM pitavastatin, 72 hrs; cytokines 18 hrs at 10 ng/mL; 10% FBS; FIG. 14B
Description: as §2

[5] = system: primary human airway smooth muscle (ASM) cells; assay: Contractile force screening (CFS), basal ASM cell contraction (strain energy); type: cell-based; conditions: donors D1-D6, FIG. 11A
ROCK-1 = assay: Total ROCK-1 expression, western blot; type: cell-based, human; conditions: 1 μM, 24 hrs, FIG. 15C
Description: as §1, §3

eotaxin-3 [6] = assay: Cytokine mixture (CM)-induced eotaxin-3 expression in ASM cells, dexamethasone with or without pitavastatin; type: cell-based, human; conditions: pitavastatin 0.1, 0.5 or 1 μM added to dexamethasone 0.1, 1 or 5 μM, 60 hrs; CM 15 hrs; FIG. 18
Description: Primary human airway smooth muscle cells were cultured to confluence in serum-containing media (10% FBS), then pre-treated with dexamethasone (“Dex”) at 0.1, 1, or 5 μM, with or without pitavastatin (“Pit”) at 0.1, 0.5, or 1 μM concentrations for 60 hrs. The ASM cells were then exposed to a mixture of cytokines ([…] IL-13, IL-17, and TNFα, “CM”) for 15 hrs, and the expression of eotaxin-3 was measured. “NT” means no treatment.

O=C(O)C[C@H](O)C[C@H](O)/C=C/c1c(C2CC2)nc2ccccc2c1-c1ccc(F)cc1 [pitavastatin]
inhibitory effect on ROCK-1 phosphorylation with mevalonate co-treatment [1]: abrogated
inhibitory effect on ROCK-1 phosphorylation with mevalonate co-treatment ([1]; listed as Pit): abrogates
histamine-induced ROCK1 phosphorylation ([1]; 1 μM, histamine 10 μM, 5 min, FIG. 5A): significantly reduced; also recorded: inhibits
IL13/TNFα-induced eotaxin-3 peptide secretion (eotaxin-3 [2]): inhibited
interference with the β2-agonist effect of isoproterenol [3]: did not interfere; also recorded: does not interfere
histamine (Hist)-induced bronchoconstriction ([3]; histamine 10 μM 15 min, serum-deprived, FIG. 13): reduced
potency relative to SA in prevention of histamine-induced ASM contraction [4]: at least 5 times
histamine-induced ASM contraction ([4]; 0.4 μM statin, 24 hrs): renders histamine ineffective at inducing ASM contraction
histamine-induced ASM contraction ([4]; 0.4 μM statin, 24 hrs, listed as Pit): inhibits histamine-induced ASM contraction
concentration sufficient to inhibit histamine-mediated ASM contraction ([4]; complete media, FIG. 4A): 0.08 µM
potency ranking on histamine-induced ASM contraction ([4]; pitavastatin, simvastatin, atorvastatin): most potent of the three drugs
histamine-induced ASM contraction ([4]; pre-treatment 24 hrs, histamine 10 μM, FIG. 4A/4B): significantly reduced histamine-induced ASM contraction; also recorded: potently and significantly inhibited
concentration providing a similar extent of protection from histamine-induced contraction ([4]; serum starved media): 0.4 µM
basal ASM contraction compared to untreated controls (ASM cells; FIG. 12A): significantly inhibited basal ASM contraction
force recovery after single stretch-unstretch maneuver (stretch-induced ASM force relaxation) (ASM cells): significantly inhibited
force recovery after single stretch-unstretch maneuver (stretch-induced ASM force relaxation) (ASM cells; listed as Pitavastatin): augmented stretch-induced ASM force relaxation
reductions of F-actin expression and ASM contraction with GGPP and MA co-treatment (F-actin; 1 μM Pit with 10 μM GGPP, or with 10 μM GGPP and 100 μM MA, FIG. 15B): abrogated
basal F-actin expression (F-actin): significantly reduced
basal F-actin expression (F-actin; listed as Pit): reduced F-actin expression; also recorded: significantly reduced
IL17/TNFα-induced IL6 peptide secretion (IL6): inhibited
ASM contraction in asthmatic and non-asthmatic donor cells [5]: dose-dependently inhibited ASM contraction; also recorded: inhibited ASM contraction dose-dependently
total (basal) expression of ROCK-1 (ROCK-1): reduced
eotaxin-3 expression (eotaxin-3 [6]): Significant reductions in eotaxin-3 expression
